EP3417074B1, “ANALYTICAL METHODS AND ARRAYS FOR USE IN THE SAME” (SenzaGen AB, priority 2016, dated 2017)
Where “and” joins values, the source holds several entries; their conditions need not be identical. Identical values can stand only once. Entries after “also recorded” stand apart in the source; their conditions may differ. Counter-ions that a name gives are not always drawn. Like-named read-outs stand apart in the source and are kept apart here. Each block holds one molecule with its values, some of them ahead of it.

Experiments:
[1] = cited from earlier work; for binary class (HP*): Table 1, based on [41] where available, HP 1-4=S, 5-6=NS, otherwise according to CLP
MUTZ-3 cells [2] = test: GARD random forest model for prediction of CLP categories (52 transcripts, Example A); settings: for predicted CLP: Suppl. Table 1, separate replicates in the test set; for GARD predicted CLP: Table 6, independent test set, majority voting across replicates; for CLP category predicted by the random forest model: test set, majority votes
MUTZ-3 cells [3] = test: Cytotoxicity / viability by flow cytometry (propidium iodide); settings: Table 1, 24 hours exposure
MUTZ-3 cells [4] = test: GARD binary classification (SVM on GARD prediction signature, 200 transcripts); settings: for GARD binary prediction: Table 1, sensitizer if median calibrated SVM DV of replicates > 0; for SVM DV: Table 8, average SVM decision value derived from triplicates
human skin = settings: cited from earlier work
MUTZ-3 cells [5] = system: MUTZ-3 cells
MUTZ-3 cells [6] = settings: for SVM DV: human
MUTZ-3 cells [7] = system: MUTZ-3 cells; remark: listed apart in the source

Compound: CCCCBr [1-bromobutane]
- binary class ([1]; Table 4): non-sens
- predicted CLP (MUTZ-3 cells [2]): no cat
- GARD predicted CLP (MUTZ-3 cells [2]): no cat

Compound: Cc1cccc(O)c1O [3-Methylcatechol]
- cytotox (MUTZ-3 cells [3]): yes
- binary class (HP*) [1]: S
- binary class ([1]; Table 4): sens
- GARD binary prediction (MUTZ-3 cells [4]): S

Compound: CC(C)C1=CC2=CC[C@@H]3[C@](C)(CCC[C@@]3(C)C(=O)O)[C@H]2CC1 [abietic acid]
- cytotox (MUTZ-3 cells [3]): no
- binary class (HP*) [1]: S
- binary class ([1]; Table 4): sens
- HP (human skin; Table 4): 3
- GARD binary prediction (MUTZ-3 cells [4]): S

Compound: CCCCC/C(=C/c1ccccc1)CO [amylcinnamyl alcohol]
- cytotox (MUTZ-3 cells [3]): yes
- HP (human skin): 4
- GARD binary prediction (MUTZ-3 cells [4]): S

- GARD predicted CLP (MUTZ-3 cells [5]; human, 24 h): 1B
- predicted CLP (MUTZ-3 cells [5]; human, 24 h): 1B
Compound: CC=Cc1ccc(OC)cc1 [anethole]
- HP (human skin): 5
- Human potency [41] (human skin): 5

Compound: Nc1ccccc1 [aniline]
- binary classification according to the established GARD model (MUTZ-3 cells [6]): misclassified
- cytotox (MUTZ-3 cells [7]): no
- HP (human skin): 4

Compound: CCOC(=O)c1ccc(N)cc1 [benzocaine]
- cytotox (MUTZ-3 cells [3]): no
- binary class (HP*) [1]: S
- binary class ([1]; Table 4): sens
- HP (human skin; Table 4): 4
- binary classification according to the established GARD model (MUTZ-3 cells [4]; sensitizing chemicals close to the cut-off defined by benchmark samples): misclassified

Compound: O=C(O)c1ccccc1 [benzoic acid]
- binary class ([1]; Table 4): non-sens
- predicted CLP (MUTZ-3 cells [2]): no cat
- GARD predicted CLP (MUTZ-3 cells [2]): no cat
- cytotox (MUTZ-3 cells [7]): no

Compound: OCc1ccccc1 [benzyl alcohol]
- cytotox (MUTZ-3 cells [3]): no
- binary class ([1]; Table 4): non-sens

- predicted CLP (MUTZ-3 cells [2]): 1B
- GARD predicted CLP (MUTZ-3 cells [2]): 1B
Compound: O=C(OCc1ccccc1)c1ccccc1 [benzyl benzoate]
- cytotox (MUTZ-3 cells [3]): yes
- GARD binary prediction (MUTZ-3 cells [4]): S

Compound: CC(C)(c1ccc(OCC2CO2)cc1)c1ccc(OCC2CO2)cc1 (centres unmarked) [bisphenol A-diglycidyl ether]
- predicted CLP (MUTZ-3 cells [2]): 1A
- GARD predicted CLP (MUTZ-3 cells [2]): 1A
- cytotox (MUTZ-3 cells [7]): yes
- HP (human skin): 3
- Human potency [41] (human skin): 3
- GARD binary prediction (MUTZ-3 cells [4]): S

Compound: CCCCOCC1CO1 (centres unmarked) [butyl glycidyl ether]
- binary classification according to the established GARD model (MUTZ-3 cells [6]): misclassified
- CLP category predicted by the random forest model (MUTZ-3 cells [5]; human, 24 h): 1A
- GARD predicted CLP (MUTZ-3 cells [5]; human, 24 h): 1A
- cytotox (MUTZ-3 cells [7]): yes
- HP (human skin): 3
- Human potency [41] (human skin): 3
- human potency category (human skin): 3

Compound: CN(C)CCCN1c2ccccc2Sc2ccc(Cl)cc21 [chlorpromazine]
- cytotox (MUTZ-3 cells [3]): yes
- binary class (HP*) [1]: S
- binary class ([1]; Table 4): sens
- HP (human skin; Table 4): 3
- GARD binary prediction (MUTZ-3 cells [4]): S

Compound: CC(C)=CCCC(C)=CC=O [citral]
- cytotox (MUTZ-3 cells [3]): yes
- binary class (HP*) [1]: S
- binary class ([1]; Table 4): sens
- HP (human skin): 3
- GARD binary prediction (MUTZ-3 cells [4]): S

Compound: O=C(O)CC(O)(CC(=O)O)C(=O)O [citric acid]
- cytotox (MUTZ-3 cells [3]): no

Compound: CC(C)=CCCC(C)CCO (centres unmarked) [citronellol]
- cytotox (MUTZ-3 cells [3]): no
- binary class ([1]; Table 4): sens
- HP (human skin; Table 4): 5
- GARD binary prediction (MUTZ-3 cells [4]): S

Compound: Clc1nc(Cl)nc(Cl)n1 [cyanuric chloride]
- cytotox (MUTZ-3 cells [3]): yes
- binary class (HP*) [1]: S
- binary class ([1]; Table 4): sens
- predicted CLP (MUTZ-3 cells [2]): 1B and no cat (2×)
- GARD predicted CLP (MUTZ-3 cells [2]): no cat
- CLP category predicted by the random forest model (MUTZ-3 cells [2]): no cat; also recorded: no category

Compound: OCCNCCO [diethanolamine]
- cytotox (MUTZ-3 cells [3]): no
- binary class ([1]; Table 4): sens
- HP (human skin): 5

- predicted CLP (MUTZ-3 cells [2]): 1A
- GARD predicted CLP (MUTZ-3 cells [2]): 1A
- CLP category predicted by the random forest model (MUTZ-3 cells [2]): 1A
Compound: CCOC(=O)/C=C\C(=O)OCC [diethyl maleate]
- binary class ([1]; Table 4): sens
- human potency category (human skin; Basketter et al. [41]): 2
- HP (human skin; Table 4): 2
- Human potency [41] (human skin; Table 6, test set): 2

Compound: CCOC(=O)c1ccccc1C(=O)OCC [diethyl phthalate]
- binary class ([1]; Table 4): non-sens
- predicted CLP (MUTZ-3 cells [2]): no cat
- GARD predicted CLP (MUTZ-3 cells [2]): no cat
- Human potency [41] (human skin; Table 6, test set): 6
- HP (human skin): 6
- Human potency (human skin): 6
- SVM DV (MUTZ-3 cells [4]): -2,15

Compound: CCOc1cc(C=O)ccc1O [ethyl vanillin]
- GARD predicted CLP (MUTZ-3 cells [5]): no cat
- predicted CLP (MUTZ-3 cells [5]): no cat
- predicted CLP (MUTZ-3 cells [5]; human, 24 h): 1B

- SVM DV (MUTZ-3 cells [6]; 24 h): 1,02
Compound: C=CCc1ccc(O)c(OC)c1 [eugenol]
- HP (human skin): 3
- Human potency (human skin): 3

Compound: C=O [formaldehyde]
- SVM DV (MUTZ-3 cells [6]): 2,32
- HP (human skin): 2
- Human potency (human skin): 2

- predicted CLP (MUTZ-3 cells [2]): 1A
- GARD predicted CLP (MUTZ-3 cells [2]): 1A
Compound: O=CCCCC=O [glutaraldehyde]
- cytotox (MUTZ-3 cells [3]): yes
- binary class (HP*) [1]: S
- binary class ([1]; Table 4): sens
- HP (human skin; Table 4): 2
- Human potency [41] (human skin; Table 6, test set): 2
- GARD binary prediction (MUTZ-3 cells [4]): S

Compound: CCCCCCOC(=O)c1ccccc1O [hexyl salicylate]
- cytotox (MUTZ-3 cells [3]): yes
- binary class (HP*) [1]: S
- binary class ([1]; Table 4): sens
- HP (human skin): 4
- GARD binary prediction (MUTZ-3 cells [4]): S

- SVM DV (MUTZ-3 cells [4]): 1,91
Compound: CC=Cc1ccc(O)c(OC)c1 [isoeugenol]
- binary class ([1]; Table 4): sens
- HP (human skin; Table 4): 2
- Human potency (human skin; Table 8): 2

- SVM DV (MUTZ-3 cells [4]): -1,37
Compound: CC(C)O [isopropanol]
- binary class ([1]; Table 4): non-sens
- HP (human skin; Table 4): 5
- Human potency (human skin; Table 8): 5

Compound: CCCCCCCCCCCCCC(=O)OC(C)C [isopropyl myristate]
- cytotox (MUTZ-3 cells [3]): no
- binary class ([1]; Table 4): sens
- HP (human skin; Table 4): 5

Compound: NC[C@H]1O[C@H](O[C@H]2[C@H](O)[C@@H](O[C@H]3O[C@H](CO)[C@@H](O)[C@H](N)[C@H]3O)[C@H](N)C[C@@H]2N)[C@H](O)[C@@H](O)[C@@H]1O [kanamycin A]
- binary class ([1]; Table 4): non-sens
- cytotox (MUTZ-3 cells [7]): no

Compound: CC(C=O)Cc1ccc(C(C)(C)C)cc1 (centres unmarked) [lilial]
- GARD binary prediction (MUTZ-3 cells [6]): S
- binary class (HP*) [1]: S
- binary class ([1]; Table 4): sens
- cytotox (MUTZ-3 cells [7]): yes
- HP (human skin): 4

- predicted CLP (MUTZ-3 cells [2]): no cat and 1B (2×)
- GARD predicted CLP (MUTZ-3 cells [2]): 1B
Compound: C=CC(C)(O)CCC=C(C)C (centres unmarked) [linalool]
- cytotox (MUTZ-3 cells [3]): no
- binary class (HP*) [1]: S
- binary class ([1]; Table 4): sens
- HP (human skin; Table 4): 4
- Human potency [41] (human skin; Table 6, test set): 4

- predicted CLP (MUTZ-3 cells [2]): 1A (2×) and 1B
- GARD predicted CLP (MUTZ-3 cells [2]): 1A
- CLP category predicted by the random forest model (MUTZ-3 cells [2]): 1A
Compound: CC(C)(O)CCCC1=CCC(C=O)CC1 (centres unmarked) [lyral]
- cytotox (MUTZ-3 cells [3]): yes
- binary class (HP*) [1]: S
- binary class ([1]; Table 4): sens
- human potency category (human skin; Basketter et al. [41]): 2
- HP (human skin; Table 4): 2
- Human potency [41] (human skin; Table 6, test set): 2
- GARD binary prediction (MUTZ-3 cells [4]): S

Compound: CCCCCC#CC(=O)OC [methyl heptine carbonate]
- cytotox (MUTZ-3 cells [3]): yes
- binary class (HP*) [1]: S
- binary class ([1]; Table 4): sens
- HP (human skin; Table 4): 2
- GARD binary prediction (MUTZ-3 cells [4]): S

- SVM DV (MUTZ-3 cells [4]): -1,53
Compound: COC(=O)c1ccccc1O [methyl salicylate]
- binary class ([1]; Table 4): non-sens
- HP (human skin; Table 4): 5
- Human potency (human skin; Table 8): 5

- SVM DV (MUTZ-3 cells [4]): -1,19
Compound: CCCCCCCC(=O)O [octanoic acid]
- binary class ([1]; Table 4): non-sens
- Human potency (human skin; Table 8): 6
- HP (human skin): 6

Compound: O=C1C=CC(=O)C=C1 [p-benzoquinone]
- GARD binary prediction (MUTZ-3 cells [6]): S
- cytotox (MUTZ-3 cells [3]): yes
- predicted CLP (MUTZ-3 cells [2]): 1A
- GARD predicted CLP (MUTZ-3 cells [2]): 1A

Compound: Nc1ccc(N)cc1 [p-phenylenediamine]
- binary class ([1]; Table 2, benchmark chemicals): sens
- binary class ([1]; Table 4): sens
- Human potency (human skin; Table 8): 1
- HP (human skin): 1
- SVM DV (MUTZ-3 cells [4]): 5,32

Compound: Oc1c(Cl)c(Cl)c(Cl)c(Cl)c1Cl [pentachlorophenol]
- cytotox (MUTZ-3 cells [3]): no
- binary class ([1]; Table 4): sens
- HP (human skin): 5

Compound: Oc1ccccc1 [phenol]
- SVM DV (MUTZ-3 cells [6]): -1,08
- HP (human skin): 6
- Human potency (human skin): 6

Compound: [K+].[K+].[O]=[Cr](=[O])([O-])[O][Cr](=[O])(=[O])[O-] [potassium dichromate]
- binary class ([1]; Table 4): sens
- HP (human skin; Table 4): 1
- Human potency (human skin; Table 8): 1
- SVM DV (MUTZ-3 cells [4]): 8,45

- predicted CLP (MUTZ-3 cells [2]): 1A
- GARD predicted CLP (MUTZ-3 cells [2]): 1A
Compound: CCCOC(=O)c1cc(O)c(O)c(O)c1 [propyl gallate]
- cytotox (MUTZ-3 cells [3]): yes
- binary class (HP*) [1]: S
- binary class ([1]; Table 4): sens
- HP (human skin; Table 4): 2
- Human potency [41] (human skin; Table 6, test set): 2
- GARD binary prediction (MUTZ-3 cells [4]): S

Compound: c1ccncc1 [pyridine]
- cytotox (MUTZ-3 cells [7]): no
- HP (human skin): 5

Compound: CCCCCCCCCCCCOS(=O)(=O)[O-].[Na+] [sodium dodecyl sulfate]
- SVM DV (MUTZ-3 cells [6]): -1,52
- HP (human skin): 6
- Human potency (human skin): 6

Compound: O=C(O)C(O)C(O)C(=O)O (centres unmarked) [tartaric acid]
- cytotox (MUTZ-3 cells [3]): no
